Columns and labels:
[1] = test system: ovarian carcinoma cell line, A2780; experiment: MTT cell viability assay, single phytocannabinoids (Example 1); assay type: cell-based; conditions: A2780 cells; for IC50: MTT
Protocol: (§1) An ovarian carcinoma cell line, A2780 was grown and maintained in RPMI 1640 medium supplemented with 10% fetal bovine serum at 37° C., 5% CO2. The cells were plated in 96-well culture plates at a density of 1×10^4 cells/well and allowed to adhere at 37° C. for 24 hours.
The cells were starved with 1% serum overnight, then treated with various concentrations of different phytocannabinoid ([…]) for various incubation periods.
The different phytocannabinoids tested were: cannabidiol (CBD); cannabidiol acid (CBDA); cannabigerol (CBG); cannabigerolic acid (CBGA); cannabigerol propyl variant (CBGV); and tetrahydrocannabivarin (THCV).
A cell viability assay, MTT, was performed following four different incubation times of 24 hours, 48 hours, 72 hours and 96 hours.
(§2) The supernatant was removed and MTT (3-(4,5-dimethylthiazol-2-yl)-2,5-diphenyltetrazolium bromide) was added for 4 hours. The ability of cells to form formazan crystals by active mitochondrial respiration was determined by using a Microplate reader after dissolving the crystals in DMSO.
(§3) Cytotoxicity was expressed as a relative percentage of the absorbance measured at 540 nm in the control and drug-treated cells. IC50 values were also calculated.
(§4) In all experiments data were presented as the mean and analysed using ANOVA followed by Dunnet's t-test; n=4.

[2] = test system: ovarian carcinoma cell line, A2780; experiment: MTT cell viability assay, combinations of phytocannabinoids (Example 2); assay type: cell-based; conditions: Homo sapiens, A2780 cells
Protocol: as §1
The different phytocannabinoid combinations that were tested were: A: cannabidiol (CBD) in combination with tetrahydrocannabivarin (THCV) and B: CBD in combination with cannabigerol (CBG).
The cells were starved with 1% serum overnight. In Experiment A various doses of CBD (1 nM-10 μM) were tested in the absence or presence of 1 hours pre-treatment of THCV (1 μM) for various incubation periods. In Experiment B various doses of CBD (1 nM-10 μM) were tested in the absence or presence of CBG (1 nM-100 μM) for various incubation periods.
A cell viability assay, MTT, was performed following four different incubation times of 24 hours, 48 hours (CBG combination only), 72 hours and 96 hours.
as §2, §3, §4

[3] = 24 hours after the cannabinoids were added
[4] = Homo sapiens, 24 hours incubation
[5] = Homo sapiens, 48 hours incubation
[6] = Homo sapiens, 72 hours incubation
[7] = Homo sapiens, 96 hours incubation
[8] = A2780, 24 h, Experiment A (CBD with or without 1 hour pre-treatment with THCV 1 μM), 24 hours
[9] = A2780, 24 h, Experiment B (CBD in absence or presence of CBG), 24 hours
[10] = A2780, 48 h, Experiment B (CBD in absence or presence of CBG), 48 hours
[11] = A2780, 72 h, Experiment A (CBD with or without 1 hour pre-treatment with THCV 1 μM), 72 hours
[12] = A2780, 72 h, Experiment B (CBD in absence or presence of CBG), 72 hours
[13] = A2780, 96 h, Experiment A (CBD with or without 1 hour pre-treatment with THCV 1 μM), 96 hours
[14] = A2780, 96 h, Experiment B (CBD in absence or presence of CBG), 96 hours

Compound	potency in words [1, 3]	IC50 [1, 4]	IC50 [1, 5]	IC50 [1, 6]	IC50 [1, 7]	IC50 [2, 8]	IC50 [2, 9]	IC50 [2, 10]	IC50 [2, 11]	IC50 [2, 12]	IC50 [2, 13]	IC50 [2, 14]	IC50 ([1]; 24 hours incubation)	IC50 ([1]; 48 hours incubation)	IC50 ([1]; 72 hours incubation)	potency in words ([1]; after 48 hours)
C=C(C)[C@@H]1CCC(C)=C[C@H]1c1c(O)cc(CCCCC)cc1O [CBD, Cannabidiol]	very potent	0.98 µM	0.95 µM	1.9 µM	3.63 µM	12.5 µM	11.8 µM	6.85 µM	5.87 µM	7.92 µM	5.62 µM	4.43 µM				
CCCc1cc(O)c2c(c1)OC(C)(C)[C@@H]1CCC(C)=C[C@@H]21 [THCV, Tetrahydrocannabivarin]		8 µM	5.75 µM	8.75 µM	9 µM	16.2 µM			14.8 µM		10.5 µM					
Cannabigerolic acid [CBGA]													12.5 µM	9.9 µM	9.25 µM	
CCCCCc1cc(O)c(C/C=C(\C)CCC=C(C)C)c(O)c1 [CBG, Cannabigerol]	very potent	2 µM	0.83 µM	0.85 µM	3.38 µM		13.9 µM	9.48 µM		9.96 µM		8.96 µM				marginally more potent than CBD
CCCc1cc(O)c(C/C=C(\C)CCC=C(C)C)c(O)c1 [CBGV, Cannabigerol propyl variant]		6 µM	3.5 µM	4 µM												
C=C(C)[C@@H]1CCC(C)=C[C@H]1c1c(O)cc(CCCCC)c(C(=O)O)c1O [CBDA, Cannabidiolic acid]		16 µM	9.5 µM	10 µM	11.8 µM											

Source: patent US10098867B2, “Use of phytocannabinoids in the treatment of ovarian carcinoma” (GW Research Limited, priority 2013, dated 2018)
